From US8987424B2, “CA6 antigen-specific cytotoxic conjugate and methods of using the same” (ImmunoGen, Inc., priority 2003, dated 2015)
Entries after “also recorded” stand apart in the source; their conditions may differ.

Tests used:
[1] = mice, single intravenous dose of 12.5 μg/kg; cited from earlier work
HPAC cells = experiment: Clonogenic assay; assay type: cell-based; conditions: Homo sapiens, 72 h exposure to free maytansine
Procedure: (§1) The cytotoxicity of maytansinoid conjugated muDS6 antibody was examined using 2 different assay formats in various DS6 positive cell lines. Clonogenic assays were conducted where cells (1000-2500 cells/well) were plated on 6-well plates in 2 ml of conjugate diluted in culture media. […] The wells were washed with PBS and the colonies were stained with a 1% w/v crystal violet/10% v/v formaldehyde/PBS solution. Unbound stain was then washed thoroughly from the wells with distilled water, and the plates were allowed to dry. The colonies were counted using a Leica StereoZoom 4 dissecting microscope.
(§2) Plating efficiency (PE) was calculated as the number of colonies/number of cells plated. Surviving fraction was calculated as PE of treated cells/PE of non-treated cells. The IC50 concentration was determined by graphing the surviving fraction of cells vs. the molar concentration of the conjugate.

ZR-75-1 cells = experiment: Clonogenic assay; assay type: cell-based; conditions: Homo sapiens, 72 h exposure to free maytansine
Procedure: as §1, §2

KB cells [2] = experiment: Clonogenic assay; assay type: cell-based; conditions: Homo sapiens, 72 h exposure to free maytansine
Procedure: as §1, §2

T-47D cells = experiment: Clonogenic assay; assay type: cell-based; conditions: Homo sapiens, T47D, 72 h exposure to free maytansine
Procedure: as §1, §2

WISH cells [3] = experiment: Clonogenic assay; assay type: cell-based; conditions: Homo sapiens, 72 h exposure to free maytansine
Procedure: as §1, §2

BT-483 cells = experiment: Clonogenic assay; assay type: cell-based; conditions: Homo sapiens, 72 h exposure to free maytansine
Procedure: as §1, §2

Caov-4 cells = experiment: Clonogenic assay; assay type: cell-based; conditions: Homo sapiens, 72 h exposure to free maytansine
Procedure: as §1, §2

HPAF-II cells = experiment: Clonogenic assay; assay type: cell-based; conditions: Homo sapiens, 72 h exposure to free maytansine
Procedure: as §1, §2

TOV-21G cells = experiment: Clonogenic assay; assay type: cell-based; conditions: Homo sapiens, TOV21G, 72 h exposure to free maytansine
Procedure: as §1, §2

Hs766T cells = experiment: Clonogenic assay; assay type: cell-based; conditions: Homo sapiens, 72 h exposure to free maytansine
Procedure: as §1, §2

BT-20 cells = experiment: Clonogenic assay; assay type: cell-based; conditions: Homo sapiens, 72 h exposure to free maytansine
Procedure: as §1, §2

Caov-3 cells = experiment: Clonogenic assay; assay type: cell-based; conditions: Homo sapiens, 72 h exposure to free maytansine
Procedure: as §1, §2

HeLa cells [4] = experiment: Clonogenic assay; assay type: cell-based, human
Procedure: as §1, §2

OVCAR5 cells = experiment: Clonogenic assay; assay type: cell-based, human
Procedure: as §1, §2

[5] = clinical trial patients; cited from earlier work
HeLa cells [6] = experiment: Flow cytometry binding assay; set-up: species or system human; conditions: HeLa cells, versus muDS6 antibody
Procedure: (§3) Cells were maintained in a 37° C., 5% CO2 humidified incubator.
(§4) Cells ([…]) were incubated, on ice for 3-4 h, with serially diluted concentrations of the DS6 antibody prepared in FACS buffer (2% goat serum, RPMI) into 96-well plates. The cells were spun down in a table top centrifuge at 1500 rpm for 5 min at 4° C. After removing the media, the wells were then refilled with 150 μl of FACS buffer. The wash step was then repeated. FITC-labeled goat anti-mouse IgG (Jackson Immunoresearch) was diluted 1:100 to FACS buffer and incubated with the cells for 1 h on ice. The plate was covered in foil to prevent photobleaching of the signal. After two washes, the cells were fixed with 1% formaldehyde and analyzed on a flow cytometer.

WISH cells [7] = experiment: MTT cell viability assay; assay type: cell-based, human
Procedure: In the MTT assay, cells were seeded in 96-well plates at a density of 1000-5000 cells/well. The cells were plated with serial dilutions of either naked muDS6 or muDS6-DM1 immunoconjugate in 200 μl of culture media. The samples were run in triplicate. The cells and antibody/conjugate mixtures were then incubated for 2-7 d, at which time cell viability was assessed by an MTT ([3(4,5-dimethylthiazol-2-yl)-2,5-diphenyl tetrazolium bromide)] assay. MTT (50 μg/well) was added to the culture supernatant and allowed to incubate for 3-4 h at 37° C. The media was removed and the MTT formazan was solubilized in DMSO (175 μl/well). The absorbance at 540-545 nm was measured. […] The wells with the highest concentrations of conjugate contained no viable cells as compared to naked antibody which had no effect (FIGS. 21 and 24).
(§5) The binding was conducted essentially as described for FIG. 20 except that KB cells were used rather than CaOv-3 cells.

HPAC xenografts = experiment: HPAC pancreatic cancer model with humanized DS6 conjugate; assay type: in vivo, mice
Procedure: The in vivo activity of huDS6v1.01-DM4 was tested on the HPAC pancreatic model. HPAC cells were inoculated on day 0, and immunoconjugate treatments were given on day 13. PBS control animals were euthanized once tumor volumes exceeded 1000 mm^3. The conjugate was given at a dose of either 200 μg/kg or 600 μg/kg DM4, corresponding to an antibody concentration 15 mg/kg and 45 mg/kg, respectively. Tumor volume (FIG. 30A) and body weight (FIG. 30B) of the mice were monitored during the course of the study.

KB cells [8] = experiment: Flow cytometry binding assay; set-up: species or system human; conditions: KB cells, versus unmodified antibody
Procedure: as §3, §4
The affinity of the purified huIgG was compared with muDS6 by flow cytometry. In the first set of experiments direct binding to a CA6-expressing cell line, KB, was measured. […] To confirm that the huDS6 versions retain the affinity of muDS6, competitive binding experiments were conducted. The advantage of this format is that the same detection system is used for both murine and human antibodies; that is biotin-muDS6/streptavidin-DTAF.
as §5

COc1c(O)c2c(c3cc(C(=O)N4CCc5c4c(O)c(OC)c4[nH]c(C(=O)N6CC7CC78C6=CC(=O)c6[nH]cc(C)c68)cc54)[nH]c13)CCN2C(N)=O (centres unmarked) [CC-1065]
day of mortality from delayed hepatotoxicity [1]: 50 days

COc1cc2cc(c1Cl)N(C)C(=O)C[C@H](OC(=O)[C@H](C)N(C)C(C)=O)[C@]1(C)O[C@H]1[C@H](C)[C@@H]1C[C@@](O)(NC(=O)O1)[C@H](OC)/C=C/C=C(\C)C2 [Maytansine, maytansine]
IC50 (HPAC cells): 0.055 nM | IC50 (ZR-75-1 cells): 0.1 nM | IC50 (KB cells [2]): 0.03 nM | IC50 (T-47D cells): 0.12 nM | IC50 (WISH cells [3]): 0.09 nM | IC50 (BT-483 cells): 0.15 nM | IC50 (Caov-4 cells): 0.6 nM | IC50 (HPAF-II cells): 0.6 nM | IC50 (TOV-21G cells): 0.048 nM | IC50 (Hs766T cells): > 3 nM | IC50 (BT-20 cells): 0.35 nM | IC50 (Caov-3 cells): 0.032 nM | fold less maytansine sensitive (HeLa cells [4]; HeLa versus TOV-21G and HPAC): 2-7 fold | IC50 (HeLa cells [4]; Homo sapiens, HeLa, 72 h exposure to free maytansine): 0.1 nM | IC50 (OVCAR5 cells; Homo sapiens, OVCAR-5, OVCAR5, 72 h exposure to free maytansine): 0.32 nM | fold less maytansine sensitive (OVCAR5 cells; OVCAR5 versus TOV-21G and HPAC): 2-7 fold

B1: cantuzumab mertansine: huC242-DM1 antibody-maytansinoid conjugate tested in a clinical trial (conjugate, chains of the INN, looked up)
VH: QVQLVQSGAEVKKPGETVKISCKASDYTFTYYGMNWVKQAPGQGLKWMGWIDTTTGEPTYAQKFQGRIAFSLETSASTAYLQIKSLKSEDTATYFCARRGPYNWYFDVWGQGTTVTVSS
VL: DIVMTQSPLSVPVTPGEPVSISCRSSKSLLHSNGNTYLYWFLQRPGQSPQLLIYRMSNLVSGVPDRFSGSGSGTAFTLRISRVEAEDVGVYYCLQHLEYPFTFGPGTKLELK
modifications: DM1 maytansinoid conjugate
notes: huC242-DM1 antibody-maytansinoid conjugate tested in a clinical trial
correlation of pretreatment shed CanAg levels with pharmacokinetics of antibody clearance [5]: no correlation

B2: DS6-MM1-202 (conjugate)
VH: QAYLQQSGAELVRSGASVKMSCKASGYTFTSYNMHWVKQTPGQGLEWIGYIYPGNGATNYNQKFKGKATLTADPSSSTAYMQISSLTSEDSAVYFCARGDSVPFAYWGQGTLVTVSA
VL: QIVLTQSPAIMSASPGEKVTITCSAHSSVSFMHWFQQKPGTSPKLWIYSTSSLASGVPARFGGSGSGTSYSLTISRMEAEDAATYYCQQRSSFPLTFGAGTKLELKR
effect of conjugation on binding activity (HeLa cells [6]): retains binding activity

B3: huDS6v1.01: humanized (resurfaced) DS6 version 1.01, heavy chain with the human 28E4 T73 (antibody, V domains shown)
VH: QAQLVQSGAEVVKPGASVKMSCKASGYTFTSYNMHWVKQTPGQGLEWIGYIYPGNGATNYNQKFQGKATLTADTSSSTAYMQISSLTSEDSAVYFCARGDSVPFAYWGQGTLVTVSA
VL: EIVLTQSPATMSASPGERVTITCSAHSSVSFMHWFQQKPGTSPKLWIYSTSSLASGVPARFGGSGSGTSYSLTISSMEAEDAATYYCQQRSSFPLTFGAGTKLELKR
cytotoxic activity of unconjugated antibody (WISH cells [7]): no cytotoxic activity

B4: huDS6v1.01-DM4 (conjugate)
VH: QAQLVQSGAEVVKPGASVKMSCKASGYTFTSYNMHWVKQTPGQGLEWIGYIYPGNGATNYNQKFQGKATLTADTSSSTAYMQISSLTSEDSAVYFCARGDSVPFAYWGQGTLVTVSA
VL: EIVLTQSPATMSASPGERVTITCSAHSSVSFMHWFQQKPGTSPKLWIYSTSSLASGVPARFGGSGSGTSYSLTISSMEAEDAATYYCQQRSSFPLTFGAGTKLELKR
toxicity / body weight (HPAC xenografts; 200 μg/kg DM4): lack of body weight loss; also recorded: not toxic | anti-tumor activity (HPAC xenografts; 200 μg/kg DM4, treatment on day 13): all mice achieving complete tumor regression; also recorded: potent anti-tumor activity | effect of conjugation on affinity/avidity (KB cells [8]): essentially no loss of affinity; also recorded: little effect on the avidity
